We go through 24 molecules from US10526327B2, “Histone demethylase inhibitors” (CELGENE QUANTICEL RESEARCH, INC., priority 2013, dated 2020).

The target of one experiment is T1, Jarid1B (Homo sapiens, UniProt Q9UGL1).
T1 construct: purchased BPS Bioscience or custom made by MolecularThroughput 50121
T1 sequence (Q9UGL1 2-751): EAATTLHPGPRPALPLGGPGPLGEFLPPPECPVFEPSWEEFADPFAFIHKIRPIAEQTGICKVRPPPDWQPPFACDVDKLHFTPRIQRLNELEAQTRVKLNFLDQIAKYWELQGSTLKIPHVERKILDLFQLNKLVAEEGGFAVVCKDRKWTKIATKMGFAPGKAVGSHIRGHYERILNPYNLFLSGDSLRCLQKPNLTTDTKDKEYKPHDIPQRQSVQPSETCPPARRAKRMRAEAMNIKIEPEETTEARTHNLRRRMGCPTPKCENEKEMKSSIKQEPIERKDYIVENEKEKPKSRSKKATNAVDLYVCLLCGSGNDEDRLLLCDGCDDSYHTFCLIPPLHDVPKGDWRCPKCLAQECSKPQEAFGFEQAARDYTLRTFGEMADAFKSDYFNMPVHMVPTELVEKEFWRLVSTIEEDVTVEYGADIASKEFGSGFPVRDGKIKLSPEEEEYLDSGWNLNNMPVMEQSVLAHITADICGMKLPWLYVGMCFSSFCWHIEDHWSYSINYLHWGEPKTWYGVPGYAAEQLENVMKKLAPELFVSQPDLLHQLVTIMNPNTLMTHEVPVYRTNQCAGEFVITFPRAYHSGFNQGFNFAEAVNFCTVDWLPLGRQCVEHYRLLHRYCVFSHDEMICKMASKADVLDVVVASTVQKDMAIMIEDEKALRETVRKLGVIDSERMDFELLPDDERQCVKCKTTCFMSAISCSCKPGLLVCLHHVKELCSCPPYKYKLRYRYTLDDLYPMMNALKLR
Description: Jarid1B in vitro enzyme inhibition assay (TR-FRET). Format: biochemical. The method, boiled down:
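TR-FRET read-out of demethylated product (Eu-anti-H3K4me1-2, streptavidin-APC) after EDTA quench; ratio 665/615 fitted to IC50. Reaction: 30 min at RT, 0.8 nM baculovirus Jarid1B residues 2-751, 2 μM α-ketoglutarate, 300 nM H3K4me3-biotin peptide, pH 7.3 buffer with Fe(II) and ascorbate.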
For orientation: In TR-FRET formats the signal depends on donor and acceptor labels being close together.

The test system of another experiment is KDM5A/B. Description: In vitro cell-based assay: immuno-blot quantification of tri-methyl H3K4 in ZR-75-1 breast cancer cells. The following applies: 72 hours, tri-methyl H3K4 level relative to GAPDH, percent of DMSO, read-out: Cellular IC50. Put shortly: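 ZR-75-1 breast cancer cells treated 72 h with 11-point compound dilutions (1250 μM to 10 nM). H3K4me3 quantified by infrared immunoblot densitometry, normalized to GAPDH and expressed as percent of DMSO control; relative IC50 from curve fit.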

One may read the IC50 as the concentration that gives 50% inhibition. With `Oc1nc(Oc2cnn([C@@H]3CCN(c4ccc(F)cc4)C3)c2)nc2cnccc12` [Example 134, 2-({1-[(3R)-1-(4-fluorophenyl)pyrrolidin-3-yl]-1H-pyrazol-4-yl}oxy)pyrido[3,4-d]pyrimidin-4-ol], the values for the IC50 against Jarid1B and in the experiment with KDM5A/B were not above 100 nM and 100 to 1000 nM, respectively.

For the molecule `O=C(C1CC1)N1CC[C@H](n2cc(Oc3nc(O)c4ccncc4n3)cn2)C1` [Example 141, 2-({1-[(3S)-1-cyclopropanecarbonylpyrrolidin-3-yl]-1H-pyrazol-4-yl}oxy)pyrido[3,4-d]pyrimidin-4-ol], the IC50 on Jarid1B is not above 100 nM; in the experiment with KDM5A/B, more than 10000 nM.

Regarding `O=C(c1ccccc1)N1CCC[C@H](n2cc(Oc3nc(O)c4ccncc4n3)cn2)C1` [Example 167, 2-({1-[(3S)-1-benzoylpiperidin-3-yl]-1H-pyrazol-4-yl}oxy)pyrido[3,4-d]pyrimidin-4-ol], the concentration for half-maximal inhibition (IC50) on Jarid1B was not above 100 nM; with KDM5A/B, 1000 to 10000 nM.

In the case of `CC(C)CCOc1nc(O)c2ccncc2n1` [Example 15, 2-(3-methylbutoxy)pyrido[3,4-d]pyrimidin-4-ol], the IC50 against Jarid1B was not above 100 nM; in the experiment with KDM5A/B it was more than 10000 nM.

For `O=C(c1ccccc1)N1CC[C@@H](n2cc(Oc3nc(O)c4ccncc4n3)cn2)C1` [Example 132, 2-({1-[(3R)-1-benzoylpyrrolidin-3-yl]-1H-pyrazol-4-yl}oxy)pyrido[3,4-d]pyrimidin-4-ol], the IC50 against Jarid1B was not above 100 nM; in the experiment with KDM5A/B, 1000 to 10000 nM.

`CCS(=O)(=O)N1CCC[C@H](n2cc(Oc3nc(O)c4ccncc4n3)cn2)C1` [Example 161, 2-({1-[(3S)-1-(ethanesulfonyl)piperidin-3-yl]-1H-pyrazol-4-yl}oxy)pyrido[3,4-d]pyrimidin-4-ol]: the IC50 at Jarid1B was not above 100 nM; with KDM5A/B it was 100 to 1000 nM.

Turning to `O=S(=O)(c1ccccc1)N1CC[C@H](n2cc(Oc3nc(O)c4ccncc4n3)cn2)C1` [Example 138, 2-({1-[(3S)-1-(benzenesulfonyl)pyrrolidin-3-yl]-1H-pyrazol-4-yl}oxy)pyrido[3,4-d]pyrimidin-4-ol], the IC50 on Jarid1B is not above 100 nM; in the experiment on KDM5A/B it was 1000 to 10000 nM.

As to `Oc1nc(Oc2cnn([C@H]3CCN(c4ccccc4F)C3)c2)nc2cnccc12` [Example 147, 2-({1-[(3S)-1-(2-fluorophenyl)pyrrolidin-3-yl]-1H-pyrazol-4-yl}oxy)pyrido[3,4-d]pyrimidin-4-ol], the IC50 was not above 100 nM against Jarid1B and 1000 to 10000 nM in the experiment with KDM5A/B.

As for `Oc1nc(Oc2cnn(Cc3cccc(Cl)c3)c2)nc2cnccc12` [Example 122, 2-({1-[(3-chlorophenyl)methyl]-1H-pyrazol-4-yl}oxy)pyrido[3,4-d]pyrimidin-4-ol], the concentration for half-maximal inhibition (IC50) was not above 100 nM at Jarid1B and 1000 to 10000 nM with KDM5A/B.

For the molecule `Oc1nc(OCCCC(F)(F)F)nc2cnccc12` [Example 20, 2-(4,4,4-trifluorobutoxy)pyrido[3,4-d]pyrimidin-4-ol], the values for the IC50 against Jarid1B and in the experiment on KDM5A/B were not above 100 nM and more than 10000 nM, respectively.

Regarding `C[C@H](c1ccccc1F)n1cc(Oc2nc(O)c3ccncc3n2)cn1` [Example 119, 2-({1-[(1R)-1-(2-fluorophenyl)ethyl]-1H-pyrazol-4-yl}oxy)pyrido[3,4-d]pyrimidin-4-ol], the values for the IC50 against Jarid1B and in the experiment on KDM5A/B were not above 100 nM and 100 to 1000 nM, respectively.

Take `C[C@@H](c1ccccc1F)n1cc(Oc2nc(O)c3ccncc3n2)cn1` [Example 120, 2-({1-[(1s)-1-(2-fluorophenyl)ethyl]-1H-pyrazol-4-yl}oxy)pyrido[3,4-d]pyrimidin-4-ol]: the IC50 was not above 100 nM at Jarid1B and 1000 to 10000 nM with KDM5A/B.

For `O=S(=O)(C1CC1)N1CC[C@@H](n2cc(Oc3nc(O)c4ccncc4n3)cn2)C1` [Example 127, 2-({1-[(3R)-1-(cyclopropanesulfonyl)pyrrolidin-3-yl]-1H-pyrazol-4-yl}oxy)pyrido[3,4-d]pyrimidin-4-ol], the figures for the 50% inhibitory concentration (IC50) against Jarid1B and in the experiment on KDM5A/B were not above 100 nM and 1000 to 10000 nM, respectively.

As for `O=C(c1ccccc1)N1CC[C@H](n2cc(Oc3nc(O)c4ccncc4n3)cn2)C1` [Example 142, 2-({1-[(3S)-1-benzoylpyrrolidin-3-yl]-1H-pyrazol-4-yl}oxy)pyrido[3,4-d]pyrimidin-4-ol], the IC50 against Jarid1B is not above 100 nM; in the experiment on KDM5A/B, more than 10000 nM.

For `CCS(=O)(=O)N1CCC[C@@H](n2cc(Oc3nc(O)c4ccncc4n3)cn2)C1` [Example 150, 2-({1-[(3R)-1-(ethanesulfonyl)piperidin-3-yl]-1H-pyrazol-4-yl}oxy)pyrido[3,4-d]pyrimidin-4-ol], the values for the IC50 against Jarid1B and with KDM5A/B were not above 100 nM and 100 to 1000 nM, respectively.

As to `N#CCC(=O)N1CC[C@H](n2cc(Oc3nc(O)c4ccncc4n3)cn2)C1` [Example 140, 3-[(3S)-3-[4-({4-hydroxypyrido[3,4-d]pyrimidin-2-yl}oxy)-1H-pyrazol-1-yl]pyrrolidin-1-yl]-3-oxopropanenitrile], the values for the IC50 against Jarid1B and in the experiment on KDM5A/B were not above 100 nM and more than 10000 nM, respectively.

On to `CCS(=O)(=O)N1CC[C@H](n2cc(Oc3nc(O)c4ccncc4n3)cn2)C1` [Example 136, 2-({1-[(3S)-1-(ethanesulfonyl)pyrrolidin-3-yl]-1H-pyrazol-4-yl}oxy)pyrido[3,4-d]pyrimidin-4-ol], for which the results for the IC50 at Jarid1B and with KDM5A/B were not above 100 nM and 100 to 1000 nM, respectively.

In the case of `O=C(C1CC1)N1CCC[C@H](n2cc(Oc3nc(O)c4ccncc4n3)cn2)C1` [Example 165, 2-({1-[(3S)-1-cyclopropanecarbonylpiperidin-3-yl]-1H-pyrazol-4-yl}oxy)pyrido[3,4-d]pyrimidin-4-ol], the values for the IC50 on Jarid1B and in the experiment with KDM5A/B were not above 100 nM and 1000 to 10000 nM, respectively.

On to `Cn1cnc(-c2nccc3c(O)nc(Oc4ccc(Cl)c(Cl)c4)nc23)c1` [Example 113, 2-(3,4-dichlorophenoxy)-8-(1-methyl-1H-imidazol-4-yl)pyrido[3,4-d]pyrimidin-4-ol], for which the results for the 50% inhibitory concentration (IC50) at Jarid1B and in the experiment on KDM5A/B were not above 100 nM and 100 to 1000 nM, respectively.

As to `CC(=O)N1CCC[C@@H](n2cc(Oc3nc(O)c4ccncc4n3)cn2)C1` [Example 153, 1-[(3R)-3-[4-({4-hydroxypyrido[3,4-d]pyrimidin-2-yl}oxy)-1H-pyrazol-1-yl]piperidin-1-yl]ethan-1-one], the IC50 against Jarid1B is not above 100 nM; in the experiment with KDM5A/B, 1000 to 10000 nM.

Turning to `CC(=O)N1CC[C@@H](n2cc(Oc3nc(O)c4ccncc4n3)cn2)C1` [Example 129, 1-[(3R)-3-[4-({4-hydroxypyrido[3,4-d]pyrimidin-2-yl}oxy)-1H-pyrazol-1-yl]pyrrolidin-1-yl]ethan-1-one], the IC50 at Jarid1B is not above 100 nM; with KDM5A/B it was more than 10000 nM.

On to `O=C(c1ccccc1)N1CCC[C@@H](n2cc(Oc3nc(O)c4ccncc4n3)cn2)C1` [Example 157, 2-({1-[(3R)-1-benzoylpiperidin-3-yl]-1H-pyrazol-4-yl}oxy)pyrido[3,4-d]pyrimidin-4-ol], for which the IC50 at Jarid1B is not above 100 nM; with KDM5A/B, 1000 to 10000 nM.

For the molecule `O=S(=O)(c1ccccc1)N1CCC[C@H](n2cc(Oc3nc(O)c4ccncc4n3)cn2)C1` [Example 163, 2-({1-[(3S)-1-(benzenesulfonyl)piperidin-3-yl]-1H-pyrazol-4-yl}oxy)pyrido[3,4-d]pyrimidin-4-ol], the IC50 at Jarid1B was not above 100 nM; with KDM5A/B, 100 to 1000 nM.

Consider `Oc1nc(Oc2cnn([C@H]3CCNC3)c2)nc2cnccc12` [Example 135, 2-({1-[(3S)-pyrrolidin-3-yl]-1H-pyrazol-4-yl}oxy)pyrido[3,4-d]pyrimidin-4-ol], for which the IC50 against Jarid1B was not above 100 nM; with KDM5A/B, more than 10000 nM.
